# According to patent US5434256A, “Diamine platinum complexes as antitumor agents” (priority 1994, dated 1995):
# “Also recorded” adds a separate entry of the source.
# Experiments:
# [1] = Renal and hematological toxicity, single i.p. dose (Table 8); details: for BUN d.5: blood urea nitrogen, saline control 20.9; for BUN d.5 / Survivors on d.14 / Body Wt. on d.5: single i.p. dose (mg/kg): 1,4-DACH-Pt^II CBDCA 300, 1,4-DACH-Pt^IV Cl4 8.0, Tetraplatin 8.0, Cis-platin 12.0, Carboplatin 150; for Body Wt. on d.5: mean, S.D. less than 20%; for myelotoxicity / myelosuppression (in words): leucopenia
# Murine Leukemia 1210/DDP = experiment: In vivo antitumor activity against murine leukemia L1210/DDP (Example 3, Table 7); set-up: species or system BDF1 mice; details: for % T/C (mean survival time of treated/mean survival time of control) × 100: at optimal dose/MTD
# Procedure: (§1) Each of the platinum complexes was evaluated in vivo against L1210/0, L1210/DDP, L1210/DACH and M5076 cells at several dose levels. […] The data at optimal doses are reproduced in Tables 4-7 along with data for the cyclobutanedicarboxylato, aquasulfato, methylmalonato and tartronato analogs (compounds 1-4 in Table 1).
# (§2) BDF1 mice inoculated i.p. with 10^5 L1210 Leukemia cells on day 0 and
# drug administed i.p. on days 1, 5, and 9. MTD = Maximum Tolerated Dose
# (§3) (mg/kg/injection), % T/C = (mean survival time of treated/mean survival
# (§4) time of control) × 100. Figures in parenthesis indicated long term
# M5076 Tumor Model = experiment: In vivo antitumor activity against M5076 tumor model (Example 3, Table 4); set-up: species or system BDF1 mice; TGD (Tumor Growth Delay): unit not given beside the values; details: M5076 s.c., BDF1 mice, i.p. days 7, 14, 21, 28; for TGD (Tumor Growth Delay): at optimal dose/MTD
# Procedure: as §1
# BDF1 mice inoculated s.c. with 10' M5076 cells on day 0 and drug
# administered i.p on days 7, 14, 21, and 28. MTD = Maximum Tolerated Dose
# (mg/kg/injection), TGD = Tumor Growth Delay
# A2780 cells = experiment: Modified MTT cytotoxicity assay, human ovarian A2780 (Example 2, Table 3); type: cell-based; details: continuous exposure (5 days in table footnote; 7 days in text)
# [2] = test system: Murine Leukemia L1210/DACH; experiment: In vivo antitumor activity against murine leukemia L1210/DACH (Example 3, Table 6); set-up: species or system BDF1 mice; details: for MTD (Maximum Tolerated Dose) / % T/C (mean survival time of treated/mean survival time of control) × 100 / long term survivors/no. tested: L1210/DACH i.p., BDF1 mice, drug i.p. days 1, 5, 9; for % T/C (mean survival time of treated/mean survival time of control) × 100: at optimal dose/MTD; for long term survivors/no. tested: figures in parenthesis
# Procedure: as §1, §2
# (§5) drug administered i.p. on days 1, 5, and 9. MTD = Maximum Tolerated Dose
# as §3, §4
# L1210/0 cells [3] = experiment: Modified MTT cytotoxicity assay, murine leukemia L1210/0 (Example 2, Table 3); type: cell-based; details: L1210/0; MTT, continuous exposure 5 days
# Murine Leukemia L1210/0 = experiment: In vivo antitumor activity against murine leukemia L1210/0 (Example 3, Table 5); set-up: species or system BDF1 mice; details: for MTD (Maximum Tolerated Dose) / % T/C (mean survival time of treated/mean survival time of control) × 100 / long term survivors/no. tested: L1210/0 i.p., BDF1 mice, drug i.p. days 1, 5, 9; for % T/C (mean survival time of treated/mean survival time of control) × 100: at optimal dose/MTD; for long term survivors/no. tested: figures in parenthesis
# Procedure: as §1
# BDF1 mice inoculated i.p. with 10^5 L1210 Leukemiacells on day 0 and
# as §5, §3
# time of control) × 100. Figures in parenthesis indicate long term
# L1210/DDP cells = experiment: MTT cytotoxicity, cisplatin-resistant L1210/DDP (Example 5, Table 10); type: cell-based, murine; details: 72 hr (3 days) continuous exposure
# L1210/DACH cells = experiment: MTT cytotoxicity, tetraplatin-resistant L1210/DACH (Example 5, Table 10); type: cell-based, murine; details: 72 hr (3 days) continuous exposure
# L1210/0 cells [4] = experiment: MTT cytotoxicity, L1210/0 (Example 5, Table 10); type: cell-based, murine; details: 72 hr (3 days) continuous exposure
# [5] = L1210/DDP i.p., BDF1 mice, drug i.p. days 1, 5, 9
structure (smiles),measurement,setting,value
N.N.O=C([O-])C1(C(=O)[O-])CCC1.[Pt+2] [Carboplatin],BUN d.5,[1],15.8 mg %
same,Survivors on d.14,[1],0/5
same,Body Wt. on d.5,[1],79 % on control
same,myelotoxicity / myelosuppression (in words),[1]; single i.p. dose,myelosuppressive
"NC1CCC(N)CC1.O.O=C([O-])C1(C(=O)[O-])CCC1.[Pt+2] [Compound 1, Cis-1,4-diaminocyclohexane-1,1-cyclobutanedicarboxylato-platinum(II).H2 O]",antitumor activity in vivo against L1210/DDP (in words),Murine Leukemia 1210/DDP,inactive
same,MTD (Maximum Tolerated Dose),M5076 Tumor Model,200 mg/kg/injection
same,TGD (Tumor Growth Delay),M5076 Tumor Model,42.3
same,IC50,A2780 cells,430 nM
same,MTD (Maximum Tolerated Dose),[2],200 mg/kg/injection
same,% T/C (mean survival time of treated/mean survival time of control) × 100,[2],180%
same,long term survivors/no. tested,[2],1/5
same,IC50,L1210/0 cells [3],1600 nM
same,MTD (Maximum Tolerated Dose),Murine Leukemia L1210/0,200 mg/kg/injection
same,% T/C (mean survival time of treated/mean survival time of control) × 100,Murine Leukemia L1210/0,195%
same,BUN d.5,[1],18.0 mg %
same,Body Wt. on d.5,[1],99 % on control
"NC1CCC(N)CC1.O.O=S(=O)([O-])[O][Pt+] (stereo not drawn) [Compound 2, Cis-1,4-Diaminocyclohexaneaquasulfatoplatinum(II)]",MTD (Maximum Tolerated Dose),M5076 Tumor Model,3.1 mg/kg/injection
same,TGD (Tumor Growth Delay),M5076 Tumor Model,12.1
same,IC50,A2780 cells,50 nM
same,MTD (Maximum Tolerated Dose),[2],1.56 mg/kg/injection
same,% T/C (mean survival time of treated/mean survival time of control) × 100,[2],140%
same,long term survivors/no. tested,[2],1/5
same,IC50,L1210/0 cells [3],80 nM
same,MTD (Maximum Tolerated Dose),Murine Leukemia L1210/0,1.56 mg/kg/injection
same,% T/C (mean survival time of treated/mean survival time of control) × 100,Murine Leukemia L1210/0,> 571%
same,long term survivors/no. tested,Murine Leukemia L1210/0,3/5
"CC(C(=O)[O-])C(=O)[O-].N[C@H]1CC[C@@H](N)CC1.O.[Pt+2] [Compound 3, Cis-1,4-Diaminocyclohexanemethylmalonatoplatinum(II). H2 O]",MTD (Maximum Tolerated Dose),M5076 Tumor Model,200 mg/kg/injection
same,TGD (Tumor Growth Delay),M5076 Tumor Model,23.62
same,IC50,A2780 cells,130 nM
same,MTD (Maximum Tolerated Dose),[2],100 mg/kg/injection
same,% T/C (mean survival time of treated/mean survival time of control) × 100,[2],180%
same,long term survivors/no. tested,[2],1/5
same,IC50,L1210/0 cells [3],280 nM
same,MTD (Maximum Tolerated Dose),Murine Leukemia L1210/0,200 mg/kg/injection
same,% T/C (mean survival time of treated/mean survival time of control) × 100,Murine Leukemia L1210/0,382%
same,long term survivors/no. tested,Murine Leukemia L1210/0,1/5
"NC1CCC(N)CC1.O=C1[O][Pt][O]C(=O)C1O [Compound 4, Cis-1,4-diaminocyclohexanetartronatoplatinum(II)]",MTD (Maximum Tolerated Dose),Murine Leukemia 1210/DDP; [5],50 mg/kg/injection
same,% T/C (mean survival time of treated/mean survival time of control) × 100,Murine Leukemia 1210/DDP; [5],187%
same,MTD (Maximum Tolerated Dose),M5076 Tumor Model,50 mg/kg/injection
same,TGD (Tumor Growth Delay),M5076 Tumor Model,30.66
same,IC50,A2780 cells,110 nM
same,antitumor activity in vivo against L1210/DACH (in words),[2]; L1210/DACH,highly active
same,MTD (Maximum Tolerated Dose),[2],50 mg/kg/injection
same,% T/C (mean survival time of treated/mean survival time of control) × 100,[2],343%
same,long term survivors/no. tested,[2],4/5
same,cure rate,"[2]; L1210/DACH, Table 6",80%
same,IC50,L1210/0 cells [3],500 nM
same,MTD (Maximum Tolerated Dose),Murine Leukemia L1210/0,25 mg/kg/injection
same,% T/C (mean survival time of treated/mean survival time of control) × 100,Murine Leukemia L1210/0,406%
same,long term survivors/no. tested,Murine Leukemia L1210/0,1/5
"NC1CCC(N)CC1.O=C1[O][Pt][O]C1=O (stereo not drawn) [Compound 5, Cis-1,4-diaminocyclohexaneoxalatoplatinum(II)]",IC50,A2780 cells,60 nM
same,IC50,L1210/0 cells [3],240 nM
"N[C@H]1CC[C@@H](N)CC1.O=C([O-])CC(=O)[O-].[Pt+2] [Compound 6, Cis-1,4-diaminocyclohexanemalonatoplatinum(II)]",IC50,A2780 cells,80 nM
same,IC50,L1210/0 cells [3],340 nM
"NC1CCC(N)CC1.[Cl][Pt]([Cl])([Cl])[Cl] (stereo not drawn) [Compound 7, Cis-1,4-Diaminocyclohexanetetrachloroplatinum(IV)]",antitumor activity in vivo against L1210/DDP (in words),Murine Leukemia 1210/DDP,good activities; also recorded: comparable or slightly greater activity
same,MTD (Maximum Tolerated Dose),Murine Leukemia 1210/DDP; [5],3.1 mg/kg/injection
same,% T/C (mean survival time of treated/mean survival time of control) × 100,Murine Leukemia 1210/DDP; [5],170%
same,long term survivors/no. tested,"Murine Leukemia 1210/DDP; L1210/DDP i.p., BDF1 mice, drug i.p. days 1, 5, 9, figures in parenthesis",1/5
same,MTD (Maximum Tolerated Dose),M5076 Tumor Model,3.1 mg/kg/injection
same,TGD (Tumor Growth Delay),M5076 Tumor Model,18.74
same,IC50,A2780 cells,90 nM
same,antitumor activity in vivo against L1210/DACH (in words),[2]; L1210/DACH,good activities; also recorded: good activity
same,MTD (Maximum Tolerated Dose),[2],3.1 mg/kg/injection
same,% T/C (mean survival time of treated/mean survival time of control) × 100,[2],146%
same,IC50,L1210/0 cells [3],120 nM
same,antitumor activity in vivo against L1210/0 (in words),Murine Leukemia L1210/0; L1210/0,excellent activity; also recorded: comparable or slightly greater activity
same,MTD (Maximum Tolerated Dose),Murine Leukemia L1210/0,3.1 mg/kg/injection
same,% T/C (mean survival time of treated/mean survival time of control) × 100,Murine Leukemia L1210/0,335%
same,long term survivors/no. tested,Murine Leukemia L1210/0,2/5
same,BUN d.5,[1],21.3 mg %
same,Survivors on d.14,[1],4/5
same,Body Wt. on d.5,[1],89 % on control
same,nephrotoxicity (in words),"[1]; single i.p. dose, BUN",did not show any indication of nephrotoxicity
same,myelotoxicity / myelosuppression (in words),[1]; single i.p. dose,did not show any indication of nephrotoxicity or myelotoxicity
"NC1CCC(N)CC1.[OH][Pt]([OH])([Cl])[Cl] (stereo not drawn) [Compound 8, Cis-1,4-diaminocyclohexanedichlorodihydroxoplatinum(IV)]",IC50,A2780 cells,140 nM
same,IC50,L1210/0 cells [3],880 nM
"NC1CCC(N)CC1.O=C1[O][Pt]([Cl])([Cl])[O]C(=O)C12CCC2 [Compound 9, Cis-1,4-diaminocyclohexane-1,1-cyclobutanedicarboxylato-dichloroplatinum(IV)]",IC50,A2780 cells,50 nM
same,IC50,L1210/0 cells [3],140 nM
"NC1CCC(N)CC1.O=C1[O][Pt]([Cl])([Cl])[O]C1=O [Compound 10, Cis-1,4-diaminocyclohexaneoxalatodichloroplatinum(IV)]",IC50,A2780 cells,51 nM
same,IC50,L1210/0 cells [3],200 nM
"CC(=O)[O][Pt]([Cl])([Cl])[O]C(C)=O.NC1CCC(N)CC1 [Compound 11, Cis-1,4-diamtinocyclohexanedichlorodiacetatoplatinum (IV)]",IC50,A2780 cells,45 nM
"CCC(=O)[O][Pt]([Cl])([Cl])[O]C(=O)CC.N[C@@H]1CCCC[C@H]1N [Compound 16, (R,R-1,2-DACH)PtCl2 trans-(Propionate)2]",IC50,L1210/DDP cells,560 nM
same,IC50,L1210/DACH cells,550 nM
same,IC50,L1210/0 cells [4],110 nM
"CCCC(=O)[O][Pt]([Cl])([Cl])[O]C(=O)CCC.N[C@@H]1CCCC[C@H]1N [Compound 17, (R,R-1,2-diaminocyclohexane)PtCl2 trans(butyrate)2]",IC50,L1210/DDP cells,220 nM
same,IC50,L1210/DACH cells,170 nM
same,IC50,L1210/0 cells [4],40 nM
"CCCCC(=O)[O][Pt]([Cl])([Cl])[O]C(=O)CCCC.N[C@@H]1CCCC[C@H]1N [Compound 18, (R,R-1,2-DACH)PtCl2 trans(pentanoate)2]",IC50,L1210/DDP cells,270 nM
same,IC50,L1210/DACH cells,240 nM
same,IC50,L1210/0 cells [4],40 nM
"CCCCCC(=O)[O][Pt]1([Cl])([Cl])([O]C(=O)CCCCC)[NH]C2CCCCC2[NH]1 [Compound 19, (R,R-1,2-DACH)PtCl2 trans-(hexanoate)2]",IC50,L1210/DDP cells,230 nM
same,IC50,L1210/DACH cells,1500 nM
same,IC50,L1210/0 cells [4],40 nM
"CCCCCCC(=O)[O][Pt]([Cl])([Cl])[O]C(=O)CCCCCC.N[C@@H]1CCCC[C@H]1N [Compound 20, (R,R-1,2-DACH)PtCl2trans(heptanoate)2]",IC50,L1210/DDP cells,700 nM
same,IC50,L1210/DACH cells,2300 nM
same,IC50,L1210/0 cells [4],150 nM
"CCC(=O)[O][Pt]([Cl])([Cl])[O]C(=O)CC.NC1CCC(N)CC1 [Compound 21, (cis-1,4-DACH)PtCl2 trans-(propionate)2]",IC50,L1210/DDP cells,500 nM
same,IC50,L1210/DACH cells,40 nM
same,IC50,L1210/0 cells [4],5.5 nM
"CCCC(=O)[O][Pt]([Cl])([Cl])[O]C(=O)CCC.NC1CCC(N)CC1 [Compound 22, (cis-1,4-DACH)PtCl2 trans-(butyrate)2]",IC50,L1210/DDP cells,130 nM
same,IC50,L1210/DACH cells,20 nM
same,IC50,L1210/0 cells [4],1.2 nM
